Data taken from BindingDB's records for doi:10.1021/jm010066k (The University of Newcastle, 2002).
Numbered stars: 1 amine (or outer) side, 2 acyl side, 3 side chain; on linkers, the order of the positions; unused ones are H or OH. Bridge positions count the residues as written; N and C are the ends. Square brackets hold non-standard residues; d marks the D form. Peptide text beside a SMILES is read from it. Adda = CO[C@@H](Cc1ccccc1)[C@@H](C)/C=C(C)/C=C/[C@H](N[*:1])[C@H](C)C(=O)[*:2]; X1 = CC(C)C[C@H](N[*:1])C(=O)C[C@@H](C(=O)O)[C@H](C)C(=O)[*:2]; NMeDha = C=C(NC)C(=O)O

Test: Inhibition of microcystin analogues to catalytic subunits of Serine/threonine protein phosphatase 2A (PP2Ac)

Compound | IC50 [nM]
CO[C@@H](Cc1ccccc1)[C@@H](C)/C=C(C)/C=C/[C@@H]1NC(=O)[C@H](C)NC(=O)[C@@H](C)[C@H](C(=O)O)CC(=O)[C@H](CC(C)C)NC(=O)[C@@H](C)NC(=O)CN(C2CCCCC2)C(=O)CC[C@H](C(=O)O)NC(=O)[C@H]1C [7-Cyclohexyl-25-isobutyl-15-(6-methoxy-3,5-dimethyl-7-phenyl-hepta-1,3-dienyl)-3,14,18,21-tetramethyl-2,5,8,13,17,20,24-heptaoxo-1,4,7,12,16,19hexaaza-cyclopentacosane-11,22-dicarboxylic acid] | 1.5
C=C1C(=O)N[C@H](C)C(=O)N[C@@H](CC2CCCCC2)C(=O)C[C@@H](C(=O)O)[C@H](C)C(=O)N[C@@H](C)C(=O)N[C@@H](/C=C/C(C)=C/[C@H](C)[C@H](Cc2ccccc2)OC)[C@H](C)C(=O)N[C@@H](C(=O)O)CCC(=O)N1C [25-Cyclohexylmethyl-15-(6-methoxy-3,5-dimethyl-7-phenyl-hepta-1,3-dienyl)-3,7,14,18,21-pentamethyl-6-methylene-2,5,8,13,17,20,24-heptaoxo-1,4,7,12,16,19hexaaza-cyclopentacosane-11,22-dicarboxylic acid] | 3.4
CO[C@@H](Cc1ccccc1)[C@@H](C)/C=C(C)/C=C/[C@@H]1NC(=O)[C@H](C)NC(=O)[C@@H](C)[C@H](C(=O)O)CC(=O)[C@H](CC(C)C)NC(=O)[C@@H](C)NC(=O)CN(C)C(=O)CC[C@H](C(=O)O)NC(=O)[C@H]1C [25-Isobutyl-15-(6-methoxy-3,5-dimethyl-7-phenyl-hepta-1,3-dienyl)-3,7,14,18,21-pentamethyl-2,5,8,13,17,20,24-heptaoxo-1,4,7,12,16,19hexaaza-cyclopentacosane-11,22-dicarboxylic acid] | 1.5
C=C1C(=O)N[C@H](C)C(=O)N[C@@H](CC(C)C)C(=O)C[C@@H](C(=O)O)[C@H](C)C(=O)N[C@@H](C)C(=O)N[C@@H](/C=C/C(C)=C/[C@H](C)[C@H](Cc2ccccc2)OC)[C@H](C)C(=O)N[C@@H](C(=O)O)CCC(=O)N1C [25-Isobutyl-15-(6-methoxy-3,5-dimethyl-7-phenyl-hepta-1,3-dienyl)-3,7,14,18,21-pentamethyl-6-methylene-2,5,8,13,17,20,24-heptaoxo-1,4,7,12,16,19hexaaza-cyclopentacosane-11,22-dicarboxylic acid] ([NMeDha][dA][X1]A[Adda][dE]-OH; lactam N-6) | 0.3
C=C1C(=O)N[C@H](CN)C(=O)N[C@@H](CC(C)C)C(=O)C[C@@H](C(=O)O)[C@H](C)C(=O)N[C@@H](C)C(=O)N[C@@H](/C=C/C(C)=C/[C@H](C)[C@H](Cc2ccccc2)OC)[C@H](C)C(=O)N[C@@H](C(=O)O)CCC(=O)N1C [11,22-Dicarboxy-25-isobutyl-15-(6-methoxy-3,5-dimethyl-7-phenyl-hepta-1,3-dienyl)-7,14,18,21-tetramethyl-6-methylene-2,5,8,13,17,20,24-heptaoxo-1,4,7,12,16,19hexaaza-cyclopentacos-3-ylmethyl-ammonium] | 9
